How the values were obtained:
AChE [1] = target: T1, AChE (Homo sapiens, UniProt P22303); assay: Enzyme kinetic studies of AChE inhibition (Lineweaver-Burk plots); assay type: biochemical
Procedure: . The type of inhibition was estimated by means of linear Lineweaver-Burk […], and the substrate speed curves in the presence and absence of 3a, 3c and 3i of the strongest compounds were verified in the enzyme kinetics analysis. […] In the initial velocity measurements, different substrate concentrations, ranging from 600 µM to 18.75 µM, were used for the AChE enzyme. The secondary plots of the Km/Vmax (slope) versus changing concentrations were used to determine Ki (intercept on the x-axis) values of compounds [30]. […] Reversible inhibition comprises of the ensuing subtypes: competitive, uncompetitive, noncompetitive or mixed-type. Such inhibitions can be determined using Lineweaver–Burk plots. […] Based on the gained plot, a mixed type of inhibition by compound 3c was established. That is, the compound can bind to the enzyme–substrate complex or to the free enzyme. It also means that the compound is a reversible inhibitor; reversible compounds can be bound to the enzyme by non-covalent interactions such as ionic bonds, hydrophobic interactions and hydrogen bonds deprived of any chemical bonding or reaction with the enzyme. These interactions take place quickly and can be easily reversed. For that reason, the enzyme–inhibitor complex is rapidly degraded immediately before irreversible inhibition. […]

BChE = BChE (Homo sapiens, UniProt P06276); assay: Anticholinesterase activity assay (modified Ellman method), BChE; assay type: biochemical
Procedure: . Initially, all the obtained compounds were tested at 10^−3 M and 10^−4 M concentrations and the ChE inhibitory results are outlined in Table 1. […]. Compounds 3a, 3c and 3i indicated more than 50% activity at the 10^−4 M concentration. […]. […] According to the results of activity tests, some general results can be listed as follows. The compounds 3a, 3c and 3i contain the non-substituted, methoxy and trifluoromethyl substituents on the phenyl ring, respectively. […]
The inhibitory capacity of the obtained compounds on AChE and BChE biological activities was assessed using a modified Ellman’s spectrometric method, as described in our previous studies. Donepezil were used as a reference drug. All pipetting procedures in the enzyme inhibition assay were carried out via a robotics system, Biotek Precision XS (Winooski, VT, USA). A BioTek-Synergy H1 microplate reader (Winooski, VT, USA) was used to carry out measurements of percent inhibition at 412 nm, and the IC50 values of the selected compounds were performed as previously described.

hMAO-B = target: T2, hMAO-B (Homo sapiens, UniProt P27338); assay: biochemical
T2 construct: purchased Sigma-Aldrich (Steinheim, Germany)
T2 sequence (P27338 1-520): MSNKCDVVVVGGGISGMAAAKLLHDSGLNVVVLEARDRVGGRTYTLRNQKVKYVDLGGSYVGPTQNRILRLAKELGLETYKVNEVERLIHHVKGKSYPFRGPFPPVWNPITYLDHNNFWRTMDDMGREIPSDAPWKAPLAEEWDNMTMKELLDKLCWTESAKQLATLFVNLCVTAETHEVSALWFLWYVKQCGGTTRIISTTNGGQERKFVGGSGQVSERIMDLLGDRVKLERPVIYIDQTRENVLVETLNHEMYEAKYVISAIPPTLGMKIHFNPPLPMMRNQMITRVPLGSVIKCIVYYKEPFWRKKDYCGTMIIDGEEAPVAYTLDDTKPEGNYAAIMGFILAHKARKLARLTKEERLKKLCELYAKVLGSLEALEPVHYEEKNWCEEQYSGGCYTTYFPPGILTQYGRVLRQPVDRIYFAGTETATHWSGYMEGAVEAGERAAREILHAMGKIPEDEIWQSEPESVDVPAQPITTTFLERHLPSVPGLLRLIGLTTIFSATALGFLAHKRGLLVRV
Procedure: Test compounds and standard drugs were used in the same concentrations as in AChE and BChE enzyme activity assays. […] To investigate the MAO-A and MAO-B enzyme inhibition profiles of the synthesized compounds, the fluorometric enzyme inhibition assay was carried out, as previously defined by us. Ampliflu™ Red (10-Acetyl-3,7-dihydroxyphenoxazine) was used as a fluorescence reagent in this assay.

AChE [2] = target: T1, AChE; assay: biochemical
hMAO-A = target: T3, hMAO-A (Homo sapiens, UniProt P21397); assay: Monoamine oxidase fluorometric inhibition assay, MAO-A; assay type: biochemical
T3 construct: purchased Sigma-Aldrich (Steinheim, Germany)
T3 sequence (P21397 1-527): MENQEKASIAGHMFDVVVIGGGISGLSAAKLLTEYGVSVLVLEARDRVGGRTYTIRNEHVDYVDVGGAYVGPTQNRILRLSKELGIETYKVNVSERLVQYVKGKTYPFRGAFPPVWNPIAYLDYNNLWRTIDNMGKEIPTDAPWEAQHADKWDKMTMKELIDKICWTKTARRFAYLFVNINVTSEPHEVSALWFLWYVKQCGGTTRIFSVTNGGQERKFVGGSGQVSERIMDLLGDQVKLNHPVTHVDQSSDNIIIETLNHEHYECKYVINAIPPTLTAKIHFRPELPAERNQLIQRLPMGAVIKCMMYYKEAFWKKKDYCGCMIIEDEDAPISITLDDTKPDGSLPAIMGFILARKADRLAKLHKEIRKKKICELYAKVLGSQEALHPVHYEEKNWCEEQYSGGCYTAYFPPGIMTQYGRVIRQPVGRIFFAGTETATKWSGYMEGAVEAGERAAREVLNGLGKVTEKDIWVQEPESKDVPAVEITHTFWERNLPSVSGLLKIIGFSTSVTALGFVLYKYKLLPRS
Procedure: In order to investigate the monoamine oxidase enzyme inhibitory effects of synthesized compounds, MAO-A and MAO-B enzyme activities were performed by using a fluorometric inhibition method. Moclobemide and selegiline were used as standard drugs for MAO-A and MAO-B enzymes, respectively. Test compounds and standard drugs were used in the same concentrations as in AChE and BChE enzyme activity assays. In Table 2, MAO enzyme inhibitory results are given. […]. To investigate the MAO-A and MAO-B enzyme inhibition profiles of the synthesized compounds, the fluorometric enzyme inhibition assay was carried out, as previously defined by us. Ampliflu™ Red (10-Acetyl-3,7-dihydroxyphenoxazine) was used as a fluorescence reagent in this assay.

T1 sequence (P22303 32-614): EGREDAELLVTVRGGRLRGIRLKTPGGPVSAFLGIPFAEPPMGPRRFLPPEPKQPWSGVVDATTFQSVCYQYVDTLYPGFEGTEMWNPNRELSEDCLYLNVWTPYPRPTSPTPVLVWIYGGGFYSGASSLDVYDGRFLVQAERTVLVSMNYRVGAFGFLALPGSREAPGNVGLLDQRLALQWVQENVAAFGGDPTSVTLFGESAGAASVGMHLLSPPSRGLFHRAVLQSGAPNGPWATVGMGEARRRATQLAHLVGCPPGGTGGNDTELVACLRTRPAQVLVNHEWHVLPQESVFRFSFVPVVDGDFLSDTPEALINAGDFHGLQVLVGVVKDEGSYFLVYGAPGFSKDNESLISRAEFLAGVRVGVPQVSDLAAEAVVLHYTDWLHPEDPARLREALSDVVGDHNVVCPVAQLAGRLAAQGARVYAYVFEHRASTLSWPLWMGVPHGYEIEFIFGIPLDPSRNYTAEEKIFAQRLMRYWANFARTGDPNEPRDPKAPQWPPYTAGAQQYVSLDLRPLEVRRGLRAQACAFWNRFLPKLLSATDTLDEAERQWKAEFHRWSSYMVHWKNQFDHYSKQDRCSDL
Sequence of BChE (P06276 29-602): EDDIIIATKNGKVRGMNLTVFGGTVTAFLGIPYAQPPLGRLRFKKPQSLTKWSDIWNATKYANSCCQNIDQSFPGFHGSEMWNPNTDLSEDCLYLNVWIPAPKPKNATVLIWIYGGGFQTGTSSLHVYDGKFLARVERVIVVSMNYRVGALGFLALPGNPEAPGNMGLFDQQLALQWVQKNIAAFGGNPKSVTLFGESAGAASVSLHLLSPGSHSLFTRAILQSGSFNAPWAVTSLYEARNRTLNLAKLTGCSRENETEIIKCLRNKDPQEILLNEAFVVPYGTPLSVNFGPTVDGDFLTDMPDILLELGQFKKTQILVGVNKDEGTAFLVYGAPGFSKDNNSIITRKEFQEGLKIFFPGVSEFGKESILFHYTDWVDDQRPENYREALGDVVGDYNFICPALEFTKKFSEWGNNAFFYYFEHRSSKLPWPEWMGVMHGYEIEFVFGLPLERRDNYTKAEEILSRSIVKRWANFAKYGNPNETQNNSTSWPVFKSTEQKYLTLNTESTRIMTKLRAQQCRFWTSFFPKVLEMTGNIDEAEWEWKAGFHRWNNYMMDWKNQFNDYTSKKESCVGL

## COc1ccc(-c2csc(NN=Cc3ccc(N4CCN(c5ccc(F)cc5)CC4)cc3)n2)cc1 [Compound 3c, 2-(2-(4-(4-(4-fluorophenyl)piperazin-1-yl)benzylidene)hydrazineyl)-4-(4-methoxyphenyl)thiazole]
AChE [1]; Lineweaver–Burk plots, 2 × IC50, IC50 and IC50/2, substrate 600 µM to 18.75 µM
  type of inhibition: mixed type
AChE [1]; secondary plot of Km/Vmax (slope) versus inhibitor concentration, read-out: steady-state inhibition constant (Ki)
  Ki: 19.7 nM
BChE; 10^−3 M
  inhibition at 1000 µM: 28 ± 0.43%
BChE; 10^−4 M
  inhibition at 100 µM: 21.6 ± 0.65%
hMAO-B; 10^−3 M, read-out: MAO-B % Inhibition
  inhibition at 1000 µM: 85.1 ± 1%
hMAO-B; 10^−4 M, read-out: MAO-B % Inhibition
  inhibition at 100 µM: 70.3 ± 0.85%
hMAO-B; read-out: MAO-B IC50
  IC50: 1020 ± 42 nM
AChE [2]; 10^−3 M
  inhibition at 1000 µM: 88.5 ± 1.1%
AChE [2]; 10^−3–10^−9 M concentrations
  IC50: 31.7 ± 1 nM
hMAO-A; 10^−3 M
  inhibition at 1000 µM: 38.6 ± 0.58%
hMAO-A; 10^−4 M
  inhibition at 100 µM: 21.8 ± 0.55%

— article PMC6651548, “Synthesis and AChE Inhibitory Activity of Novel Thiazolylhydrazone Derivatives” (Molecules, 2019)
